From patent US6521751B1, “Recombinant nucleic acid sequences and methods for determining both genotoxicity and mutagenicity of a sample and the kinetics of the genotoxicity” (Vlaamse Instelling voor Technologisch Onderzoek (VITO), priority 1998, dated 2003)
Values joined by “and” are separate entries in the source; they are usually repeats but may differ in a detail not shown here. Identical values can stand only once. Like-named read-outs stand apart in the source and are kept apart here.

Legend:
E. coli (sfiA-lacZ) = conditions: cited from earlier work
[1] = test system: TA 98 and TA104 strains containing pMOL1067 or pMOL1068
S. typhimurium = conditions: cited from earlier work
[2] = test system: S. typhimurium TA104* containing pMOL890
[3] = test system: S. typhimurium TA104 containing pMOL1069
[4] = test system: S. typhimurium TA98 containing pMOL890
[5] = test system: S. typhimurium TA98 containing pMOL1068
[6] = test system: S. typhimurium TA98 containing pMOL1067
[7] = test system: S. typhimurium TA104 containing pMOL890
[8] = test system: S. typhimurium TA104 containing pMOL1068
[9] = test system: S. typhimurium TA104 containing pMOL1066
[10] = test system: S. typhimurium TA104 containing pMOL1067
[11] = test system: S. typhimurium TA100* containing pMOL890
[12] = test system: S. typhimurium TA98* containing pMOL890
[13] = test system: TA98 and TA104 strains containing pMOL890, pMOL1067 or pMOL1068; experiment: Test with the TA98 and TA104 strains containing pMOL890, pMOL1067 or pMOL1068
[14] = test system: novel biosensor systems in E. coli and in S. typhimurium strains; experiment: Subject SOS promoter-lux systems (general statements); conditions: for result in the novel systems according to the invention: agents known to give false negative results in the SOS chromotest and the Ames test
[15] = TA 98 and TA104 strains containing pMOL1067 or pMOL1068
[16] = SOS chromotest, literature values

4-nitroquinoline-N-oxyde [4-NQO]
MINIMAL DETECTED CONCENTRATION (MDC) (E. coli (sfiA-lacZ)): 0.006 nmol/assay | SOS (result) (E. coli (sfiA-lacZ)): pos | OUTCOME (genotoxicity, final outcome) [1]: pos

c1ccc2cc3ccccc3cc2c1 [Anthracene]
AMES (result) (S. typhimurium): neg | SOS (result) (E. coli (sfiA-lacZ); SOS chromotest, Table 3): neg | OUTCOME (genotoxicity, final outcome) [1, 15]: neg

c1ccc2c(c1)cc1ccc3cccc4ccc2c1c34 [BαP, benzo-α-pyrene]
Number of His^+ revertants ([2]; BαP 50 mmol + S9): 82 and 85 | Number of His^+ revertants ([2]; BαP 50 mmol − S9): 29 and 27 | Number of His^+ revertants ([2]; BαP 200 mmol + S9): 87 | Number of His^+ revertants ([2]; BαP 200 mmol − S9): 26 and 32 | Number of His^+ revertants ([2]; BαP 600 mmol + S9): 57 and 69 | Number of His^+ revertants ([2]; BαP 600 mmol − S9): 21 and 19 | MINIMAL DETECTED CONCENTRATION (MDC) ([3]; TA104 pMOL1069): 0.16 nmol/assay | MINIMAL DETECTED CONCENTRATION (MDC) ([4]; TA98 pMOL890): 1.59 nmol/assay | MINIMAL DETECTED CONCENTRATION (MDC) ([5]; TA98 pMOL1068): 0.16 nmol/assay | MINIMAL DETECTED CONCENTRATION (MDC) ([6]; TA98 pMOL1067): 0.16 nmol/assay | MINIMAL DETECTED CONCENTRATION (MDC) ([7]; TA104 pMOL890): 0.32 nmol/assay | SOS (result) (E. coli (sfiA-lacZ); SOS chromotest, Table 3): pos | MINIMAL DETECTED CONCENTRATION (MDC) (E. coli (sfiA-lacZ); [16]): 0.7 nmol/assay | MINIMAL DETECTED CONCENTRATION (MDC) ([8]; TA104 pMOL1068): 0.16 nmol/assay | MINIMAL DETECTED CONCENTRATION (MDC) ([9]; TA104 pMOL1066): 0.16 nmol/assay | MINIMAL DETECTED CONCENTRATION (MDC) ([10]; TA104 pMOL1067): 0.079 nmol/assay | OUTCOME (genotoxicity, final outcome) [1, 15]: pos | Number of His^+ revertants ([11]; BαP 10 mmol + S9): 67 and 80 | Number of His^+ revertants ([11]; BαP 50 mmol + S9): 64 and 54 | Number of His^+ revertants ([11]; BαP 50 mmol − S9): 15 and 11 | Number of His^+ revertants ([11]; BαP 200 mmol + S9): 59 and 58 | Number of His^+ revertants ([11]; BαP 600 mmol + S9): 74 and 73 | Number of His^+ revertants ([11]; BαP 600 mmol − S9): 6 and 3 | Number of His^+ revertants ([12]; BαP 10 mmol + S9): 24 | Number of His^+ revertants ([12]; BαP 50 mmol − S9): 0 | Number of His^+ revertants ([12]; BαP 200 mmol + S9): 49 and 50 | Number of His^+ revertants ([12]; BαP 200 mmol − S9): 0 | Number of His^+ revertants ([12]; BαP 600 mmol + S9): 29 and 33 | Number of His^+ revertants ([12]; BαP 600 mmol − S9): 0

COC(=O)N/N=C/c1c[n+]([O-])c2ccccc2[n+]1[O-] [Carbadox]
AMES (result) (S. typhimurium; Ames test, Table 3): pos | SOS (result) (E. coli (sfiA-lacZ); SOS chromotest, Table 3): pos | OUTCOME (genotoxicity, final outcome) [1, 15]: pos

CNC(=O)Oc1cccc2ccccc12 [Carbaryl]
SOS (result) (E. coli (sfiA-lacZ)): pos

[Cl][Cd][Cl] [CdCl2]
MINIMAL DETECTED CONCENTRATION (MDC) [3]: neg | MINIMAL DETECTED CONCENTRATION (MDC) [4]: neg | MINIMAL DETECTED CONCENTRATION (MDC) [5]: neg | AMES (result) (S. typhimurium): neg | MINIMAL DETECTED CONCENTRATION (MDC) (S. typhimurium): neg | MINIMAL DETECTED CONCENTRATION (MDC) [6]: neg | MINIMAL DETECTED CONCENTRATION (MDC) [7]: neg | MINIMAL DETECTED CONCENTRATION (MDC) (E. coli (sfiA-lacZ)): neg | SOS (result) (E. coli (sfiA-lacZ)): neg | MINIMAL DETECTED CONCENTRATION (MDC) [8]: neg | MINIMAL DETECTED CONCENTRATION (MDC) [9]: neg | MINIMAL DETECTED CONCENTRATION (MDC) [10]: neg | OUTCOME (genotoxicity, final outcome) [1]: neg

O=P1(N(CCCl)CCCl)NCCCO1 (centres unmarked) [Cyclophosphamide]
AMES (result) (S. typhimurium): pos | SOS (result) (E. coli (sfiA-lacZ)): neg | OUTCOME (genotoxicity, final outcome) [1]: neg | result in the test (genotoxicity) [13]: negative

ClCC1CO1 (centres unmarked) [Epichlorohydrine]
AMES (result) (S. typhimurium): pos | SOS (result) (E. coli (sfiA-lacZ)): pos | OUTCOME (genotoxicity, final outcome) [1]: pos

S=C1NCCN1 [Ethylenethiourea]
AMES (result) (S. typhimurium): pos

CCOS(C)(=O)=O [Ethylmethanesulphonate]
AMES (result) (S. typhimurium): pos | SOS (result) (E. coli (sfiA-lacZ)): pos | OUTCOME (genotoxicity, final outcome) [1]: pos

NN [Hydrazine]
AMES (result) (S. typhimurium): pos | SOS (result) (E. coli (sfiA-lacZ); SOS chromotest, Table 3): pos | OUTCOME (genotoxicity, final outcome) [1, 15]: pos

COc1ccc2nc3cc(Cl)ccc3c(NCCCNCCCl)c2c1 [ICR191]
MINIMAL DETECTED CONCENTRATION (MDC) ([3]; Salmonella typhimurium): 1.1 nmol/assay | MINIMAL DETECTED CONCENTRATION (MDC) ([4]; Salmonella typhimurium): 0.14 nmol/assay | MINIMAL DETECTED CONCENTRATION (MDC) ([5]; Salmonella typhimurium): 0.14 nmol/assay | AMES (result) (S. typhimurium): pos | MINIMAL DETECTED CONCENTRATION (MDC) (S. typhimurium): pos | MINIMAL DETECTED CONCENTRATION (MDC) ([6]; Salmonella typhimurium): 0.28 nmol/assay | MINIMAL DETECTED CONCENTRATION (MDC) ([7]; Salmonella typhimurium): 0.14 nmol/assay | MINIMAL DETECTED CONCENTRATION (MDC) (E. coli (sfiA-lacZ)): 0.13 nmol/assay | SOS (result) (E. coli (sfiA-lacZ)): pos | MINIMAL DETECTED CONCENTRATION (MDC) ([8]; Salmonella typhimurium): 0.55 nmol/assay | MINIMAL DETECTED CONCENTRATION (MDC) ([9]; Salmonella typhimurium): 1.1 nmol/assay | MINIMAL DETECTED CONCENTRATION (MDC) ([10]; Salmonella typhimurium): 0.55 nmol/assay | OUTCOME (genotoxicity, final outcome) [1]: pos

Cl[C@H]1[C@H](Cl)[C@@H](Cl)[C@@H](Cl)[C@H](Cl)[C@H]1Cl [Lindane]
AMES (result) (S. typhimurium): neg | SOS (result) (E. coli (sfiA-lacZ); SOS chromotest, Table 3): neg | OUTCOME (genotoxicity, final outcome) [1, 15]: neg

CN(Cc1cnc2nc(N)nc(N)c2n1)c1ccc(C(=O)N[C@@H](CCC(=O)O)C(=O)O)cc1 [Methotrexate]
AMES (result) (S. typhimurium; Ames test, Table 3): pos | SOS (result) (E. coli (sfiA-lacZ); SOS chromotest, Table 3): pos | OUTCOME (genotoxicity, final outcome) [1, 15]: pos

CO[C@@]12[C@H](COC(N)=O)C3=C(C(=O)C(C)=C(N)C3=O)N1C[C@@H]1N[C@@H]12 [Mitomycin C]
level that can be detected ([14]; subject systems): 7 ng/mL

CCN(CC)N=O [N-Nitrosodiethylamine]
AMES (result) (S. typhimurium): pos | SOS (result) (E. coli (sfiA-lacZ); SOS chromotest, Table 3): pos | OUTCOME (genotoxicity, final outcome) [1, 15]: pos

CCn1cc(C(=O)O)c(=O)c2ccc(C)nc21 [Nalidixic acid]
AMES (result) (S. typhimurium): neg | result in the Ames test (S. typhimurium): False-negative | OUTCOME (genotoxicity, final outcome) [1, 15]: pos | result in the test (genotoxicity) [13]: positive | result in the novel systems according to the invention [14]: positive

c1ccc2ccccc2c1 [Naphtalene]
SOS (result) (E. coli (sfiA-lacZ)): neg | OUTCOME (genotoxicity, final outcome) [1]: neg

O=C(N/N=C/c1ccc([N+](=O)[O-])o1)c1ccc(O)cc1 [Nifuroxazide]
AMES (result) (S. typhimurium; Ames test, Table 3): pos | OUTCOME (genotoxicity, final outcome) [1, 15]: pos

Oc1c(Cl)c(Cl)c(Cl)c(Cl)c1Cl [Pentachlorophenole]
SOS (result) (E. coli (sfiA-lacZ)): pos

c1cc2ccc3cccc4ccc(c1)c2c34 [Pyrene]
AMES (result) (S. typhimurium): neg | result in the Ames test (S. typhimurium): False-negative | OUTCOME (genotoxicity, final outcome) [1, 15]: pos | result in the test (genotoxicity) [13]: positive | result in the novel systems according to the invention [14]: positive

CCCCCCCCCCCCOS(=O)(=O)[O-].[Na+] [Sodium Dodecyl Sulphate]
AMES (result) (S. typhimurium; Ames test, Table 3): neg | OUTCOME (genotoxicity, final outcome) [1, 15]: neg

[N-]=[N+]=[N-] [Sodiumazide]
AMES (result) (S. typhimurium): pos | SOS (result) (E. coli (sfiA-lacZ); SOS chromotest, Table 3): neg | result in the SOS chromotest (E. coli (sfiA-lacZ); text b126): negative | OUTCOME (genotoxicity, final outcome) [1, 15]: pos | result in the test (genotoxicity) [13]: positive | result in the novel systems according to the invention [14]: positive

[Cl-].[Cl-].[Zn+2] [ZnCl2]
AMES (result) (S. typhimurium): neg | SOS (result) (E. coli (sfiA-lacZ)): neg | OUTCOME (genotoxicity, final outcome) [1]: neg

c1ccc2c(c1)ccc1c3ccccc3ccc21 [chrysene]
MINIMAL DETECTED CONCENTRATION (MDC) ([3]; TA104 pMOL1069): 0.55 nmol/assay | MINIMAL DETECTED CONCENTRATION (MDC) ([4]; TA98 pMOL890): 2.2 nmol/assay | MINIMAL DETECTED CONCENTRATION (MDC) ([5]; TA98 pMOL1068): 5.5 nmol/assay | AMES (result) (S. typhimurium): pos | MINIMAL DETECTED CONCENTRATION (MDC) (S. typhimurium): pos | MINIMAL DETECTED CONCENTRATION (MDC) ([6]; TA98 pMOL1067): 5.5 nmol/assay | MINIMAL DETECTED CONCENTRATION (MDC) ([7]; TA104 pMOL890): 2.2 nmol/assay | SOS (result) (E. coli (sfiA-lacZ); SOS chromotest, Table 3): pos | MINIMAL DETECTED CONCENTRATION (MDC) (E. coli (sfiA-lacZ); [16]): 11 nmol/assay | MINIMAL DETECTED CONCENTRATION (MDC) ([8]; TA104 pMOL1068): 1.095 nmol/assay | MINIMAL DETECTED CONCENTRATION (MDC) ([9]; TA104 pMOL1066): 1.095 nmol/assay | MINIMAL DETECTED CONCENTRATION (MDC) ([10]; TA104 pMOL1067): 0.55 nmol/assay | OUTCOME (genotoxicity, final outcome) [1, 15]: pos
